In brackets after ≈: the same amount, converted by molar mass. Like-named read-outs stand apart in the source and are kept apart here.
Assays:
Unfractionated heparin = assay: aPTT clotting assay, UFH 0.4 U/mL in plasma (Example 10); format: biochemical; details: unfractionated heparin 0.4 U/mL in plasma; aPTT clotting
Method: aPTT clotting Assay: Unfractionated heparin was mixed with plasma at a final concentration of 0.4 U/mL (or concentration which increases aPTT time to between 120 and 300 seconds). […] The ACL Elite Hemostasis analyzer (Beckman Coulter™) was used to add aPTT reagent (HemosIL SynthASil) to supplemented plasma. Clotting was initiated by addition of CaCl2 and time to clot was recorded.

fondaparinux = assay: FXa amidolytic assay (Example 10), fondaparinux; details: for EC50: read-out: Fondap FXa EC50, fondaparinux 0.02 μg/mL, human antithrombin, bovine Factor Xa
Method: (§2) Two μl of test agent are added (range between 0.01 and 23 ug/ml) and incubated for 5 minutes at 23° C. Bovine Factor Xa was added to a final concentration of 0.636 nkat/mL and incubated for a further 10 minutes at 23° C.

enoxaparin = assay: FXa amidolytic assay (Example 10), enoxaparin; details: read-out: Enox FXa EC50; enoxaparin 0.1 ug/ml; human antithrombin, bovine Factor Xa
Method: as §2

[1] = Cytotoxicity colorimetric assay, HepG2; format: cell-based, human; set-up: Cytotoxicity HepG2, percent printed in parentheses after the concentration: concentration or dose not given beside the values; details: human, HepG2 cells, one hour in serum-free media
Method: (§1) This assay measures the bioreduction of a novel tetrazolium compound to a soluble formazan product by viable cells. HepG2 cells were seeded in 96 well plates at 3×10^4 cells/well in MEM medium with 10% fetal bovine serum (FBS) 24 hours prior to use. NIH/3T3 cells were seeded in 96 well plates at 2×10^4 cells/well in DMEM medium with 10% bovine calf serum (BCS) 24 hours prior to use. Cell monolayers were rinsed in serum-free media and incubated for one hour with test agent in serum-free media. After incubation, the media was replaced with serum supplemented media and live cells were measured using the Cell Titer 96 Aqueous […] Assay kit (Promega, Madison, Wis.). EC50 values were determined using a four parameter logistic equation: Y=Bottom+(Top-Bottom)/(1+10̂((LogEC50-X)*HillSlope)).

HepG2 cells = assay: Cytotoxicity colorimetric assay, HepG2; format: cell-based, human; set-up: Cytotoxicity HepG2, percent printed in parentheses after the concentration: concentration or dose not given beside the values; details: at the concentration given
Method: as §1

tinzaparin = assay: FXa amidolytic assay (Example 10), tinzaparin; details: read-out: Tinzap FXa EC50; tinzaparin 0.1 ug/ml; human antithrombin, bovine Factor Xa
Method: as §2

UFH = assay: FXa amidolytic assay (Example 10), UFH; details: read-out: Heparin FXa uM EC50; UFH 0.03 units/mL; human antithrombin, bovine Factor Xa
Method: as §2

[2] = system: isolated human erythrocytes; assay: cells; format: cell-based; details: Homo sapiens, Erythrocyte, 1 h, read-out: Hemolysis EC50
Procedure, shortened: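 Pooled human red cells, washed and diluted from a 0.22% stock suspension in TBS pH 7.4, were shaken with two-fold dilutions (1000 to 0.48 µg/ml) for 1 h at 37 °C. Released hemoglobin in the supernatant was read at OD405. EC50 came from a four-parameter logistic fit, with melittin as positive control.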

[3] = Cytotoxicity colorimetric assay, NIH/3T3; format: cell-based, mouse; details: mouse, NIH/3T3 cells, one hour in serum-free media
Method: as §1

SMILES: COc1ccc(NC(=O)[C@H](CCCCN)NC(=O)c2cc(NC(=O)[C@H](CCCCN)NC(=O)c3cc(NC(=O)[C@H](CCCCN)NC(=O)c4cc(NC(=O)[C@@H](N)CCCCN)ccc4OC)ccc3OC)ccc2OC)cc1C(=O)Nc1cccc(C(=O)O)c1 [Compound 275]
- EC50 (Unfractionated heparin): 1720 nM
- EC50 (fondaparinux): 579 nM
- EC50 (enoxaparin): 134 nM
- EC50 at 1 h [1]: 1000 µg/mL (≈ 802 µM)
- Cytotoxicity HepG2, percent printed in parentheses after the concentration (HepG2 cells): 50%
- EC50 (tinzaparin): 113 nM

SMILES: COc1ccc(NC(=O)[C@@H](CCCNC(=N)N)NC(=O)c2cc(NC(=O)[C@@H](CCCNC(=N)N)NC(=O)c3cc(NC(=O)[C@@H](CCCNC(=N)N)NC(=O)c4cc(NC(C)=O)ccc4OC)ccc3OC)ccc2OC)cc1C(=O)N[C@H](Cc1c[nH]c2ccccc12)C(=O)O [Compound 304]
- EC50 (Unfractionated heparin): > 10000 nM
- EC50 (fondaparinux): 209 nM
- EC50 (UFH): 0.242 µM
- EC50 (enoxaparin): 256 nM
- Cytotoxicity HepG2, percent printed in parentheses after the concentration (HepG2 cells): 50%
- EC50 (tinzaparin): 257 nM
- EC50 ([2]; human RBC, 1 hour at 37° C.): ~500 µg/mL (≈ 381 µM)

SMILES: COc1ccc(NC(=O)[C@H](CCCCN)NC(=O)c2cc(NC(=O)[C@H](CCCCN)NC(=O)c3cc(NC(=O)[C@H](CCCCN)NC(=O)c4cc(NC(=O)[C@H](CCCCN)NC(=O)c5ccccc5)ccc4OC)ccc3OC)ccc2OCC(=O)O)cc1C(N)=O [Compound 354]
- EC50 (Unfractionated heparin): 2200 nM
- Potent LMWH-antagonists with superior anti-fondaparinux activity (summary) (fondaparinux): superior anti-fondaparinux activity
- EC50 (fondaparinux): 202 nM
- EC50 (UFH): 0.214 µM
- EC50 (enoxaparin): 117 nM
- EC50 at 1 h [1]: > 1000 µg/mL
- EC50 (tinzaparin): 109 nM
- EC50 [2]: > 1000 µg/mL
- EC50 at 1 h [3]: > 1000 µg/mL

SMILES: COc1ccc(NC(=O)[C@H](CCCCN)NC(=O)c2cc(NC(=O)[C@H](CCCCN)NC(=O)c3cc(NC(=O)[C@H](CCCCN)NC(=O)c4cc(NC(=O)[C@H](CCCCN)NC(=O)Cc5ccccc5)ccc4OC)ccc3OC)ccc2OC)cc1C(N)=O [Compound 355]
- EC50 (Unfractionated heparin): 1410 nM
- EC50 (fondaparinux): 800 nM
- EC50 (UFH): 0.147 µM
- EC50 (enoxaparin): 95 nM
- EC50 at 1 h [1]: 133 µg/mL (≈ 107 µM)
- EC50 (tinzaparin): 67 nM
- EC50 [2]: > 1000 µg/mL
- EC50 at 1 h [3]: 52 µg/mL (≈ 41.8 µM)

SMILES: COC(=O)c1ccc(C(=O)N[C@@H](CCCCN)C(=O)Nc2ccc(OC)c(C(=O)N[C@@H](CCCCN)C(=O)Nc3ccc(OC)c(C(=O)N[C@@H](CCCCN)C(=O)Nc4ccc(OC)c(C(=O)N[C@@H](CCCCN)C(=O)Nc5ccc(OC)c(C(N)=O)c5)c4)c3)c2)cc1 [Compound 359]
- EC50 (Unfractionated heparin): 1390 nM
- EC50 (fondaparinux): 115 nM
- EC50 (UFH): 0.189 µM
- EC50 (enoxaparin): 90 nM
- EC50 at 1 h [1]: > 1000 µg/mL
- EC50 (tinzaparin): 73 nM
- EC50 ([2]; human RBC, 1 hour at 37° C.): > 1000 µg/mL
- EC50 at 1 h [3]: > 1000 µg/mL

SMILES: COc1cc(OCC(N)=O)c(C(=O)N[C@H]2CC[C@H](NC(=O)c3cc(C(=O)NCCN(C)C)c(OCCCCCN)cc3OCCCCCN)CC2)cc1C(=O)N[C@H]1CC[C@H](NC(=O)c2cc(C(=O)NCCN(C)C)c(OCCCCCN)cc2OCCCCCN)CC1 [Compound 379]
- EC50 (Unfractionated heparin): 1620 nM
- EC50 (fondaparinux): > 10000 nM
- EC50 (UFH): 0.13 µM
- EC50 (enoxaparin): 464 nM
- EC50 at 1 h [1]: > 1000 µg/mL
- EC50 (tinzaparin): 95 nM
- EC50 ([2]; human RBC, 1 hour at 37° C.): > 1000 µg/mL
- EC50 at 1 h [3]: 650 µg/mL (≈ 499 µM)

SMILES: COc1cc(OC)c(C(=O)N[C@H]2CC[C@@H](NC(=O)c3ccc(OCCCCCNC(=N)N)cc3OCCCCCNC(=N)N)CC2)cc1C(=O)N[C@H]1CC[C@@H](NC(=O)c2ccc(OCCCCCNC(=N)N)cc2OCCCCCNC(=N)N)CC1 [Compound 380]
- EC50 (Unfractionated heparin): 1690 nM
- EC50 (fondaparinux): 180 nM
- EC50 (UFH): 0.164 µM
- EC50 (enoxaparin): 89 nM
- EC50 at 1 h [1]: 81.3 µg/mL (≈ 67.8 µM)
- EC50 (tinzaparin): 71 nM
- EC50 ([2]; human RBC, 1 hour at 37° C.): > 1000 µg/mL
- EC50 at 1 h [3]: 43.2 µg/mL (≈ 36 µM)

SMILES: COc1cc(OC)c(C(=O)N[C@H]2CC[C@@H](NC(=O)c3cc(C(=O)N[C@H]4CC[C@@H](NC(=O)c5cc(C(=O)NCCN)c(OC)cc5OC)CC4)c(OC)cc3OC)CC2)cc1C(=O)NCCN [Compound 381]
- EC50 (Unfractionated heparin): 2690 nM
- EC50 (fondaparinux): 493 nM
- EC50 (UFH): 0.777 µM
- EC50 (enoxaparin): 289 nM
- EC50 at 1 h [1]: 1130 µg/mL (≈ 1230 µM)
- EC50 (tinzaparin): 274 nM
- EC50 ([2]; human RBC, 1 hour at 37° C.): 22.4 µg/mL (≈ 24.4 µM)
- EC50 at 1 h [3]: 1080 µg/mL (≈ 1180 µM)

Source: patent US20110178104A1, “Anti-Heparin Compounds” (POLYMEDIX INC., priority 2010, published 2011)
